Data taken from patent US10239836B2, “Benzenecarbothioccyclopenta[c] pyrrole-1,3-dione compounds and process for synthesis thereof” (Council of Scientific & Industrial Research, priority 2014, dated 2019).
Read-outs that look alike come from different tables or passages of the source.

Experiments:
[1] = Cytotoxicity assay (MTT viability); type: cell-based, Mouse; conditions: mouse; RAW 264.7 cells, MTT, 24 h treatment, serum free
Experimental: (§1) Mouse macrophage cell line RAW 264.7 was maintained in laboratory at 37° C. in
(§2) RPMI-1640 media supplemented with 10% heat-inactivated fetal bovine serum (FBS) and penicillin/streptomycin.
Viability of cultured cells was determined by (4,5-dimethylthiazol-2-yl)-2,5-diphenyltetrazolium bromide (MTT; Sigma) as described earlier (1). RAW 264.7 was seeded in triplicate at a density of 2×10^4 cells per well on a 96-well plate. […] MTT solution (0.5 mg/ml) was then added to each well and incubate for 4 h at 37° C. At the end of the incubation period, the medium was removed and the resulting purple formazan was solubilized with acidic isopropanol (0.1 N HCl in absolute isopropanol), and the absorbance was read at 570 nm using Biorad Microplate reader (Biorad, USA).

[2] = tested on: LPS induced NO generation in RAW 264.7 cells; experiment: Inhibition of LPS induced NO generation (nitrite, Griess reagent); type: cell-based, Mouse; conditions: for IC50: Mus musculus, read-out: NO inhibition (B) IC50; for Selectivity index (A/B): cytotoxicity IC50 / NO inhibition IC50, RAW 264.7 cells
Experimental: as §1, §2
Nitrite, a stable oxidized product of NO, was measured in culture supernatant using Griess reagent (Sigma Aldrich) according to a previously reported method (2). After overnight seeding in 96-well plate (2×10^4 cells/well), RAW 264.7 cell was treated with lipopolysaccharide (LPS; Sigma) at a concentration of 1 μg/ml along with different doses of compounds (as determined from cytotoxicity assay) in serum-free culture for 24 h. Following treatment, media was collected and centrifuged at 2,000 rpm for 5 min to remove cellular debris. 50 μl of this media was then reacted with equal volume of Griess reagent for 15 min at room temperature in dark and absorbance was taken at 540 nm using Microplate reader (Biorad, USA). Nitrite concentrations were determined using standard solutions of sodium nitrite prepared in cell culture medium.

[3] = RAW264.7, RAW 264.7 cells, LPS 1 μg/ml, 24 h, serum-free

| Structure (SMILES) | IC50 at 24 h [1] [µM] | IC50 [2, 3] [µM] | Selectivity index (A/B) [2] | melting point [°C] | IC50 ([2]; RAW264.7, 24 h) [µM] |
| --- | --- | --- | --- | --- | --- |
| O=C1NC(=O)C2=C1CCC2O (stereo in doubt) [(+)-4, (S)-4-Hydroxy-5,6-dihydrocyclopenta[c]pyrrole-1,3(2H,4H)-dione] | 217 | 95.9 | 2.26 | – | – |
| O=C(S[C@@]12CC[C@@H](O)[C@@H]1C(=O)NC2=O)c1cccs1 (relative stereo) [Compound 12, S-((3aS*,6R*,6aR*)-6-Hydroxy-1,3-dioxohexahydrocyclopenta[c]pyrrol-3a(1H)-yl) thiophene-2-carbothioate] | 10900 | 36.6 | 297.0519 | – | – |
| O=C(S[C@]12CCC[C@H]1C(=O)NC2=O)c1ccccc1Cl (relative stereo) [Compound 21, S-((3aR*,6aS*)-1,3-Dioxohexahydrocyclopenta[c]pyrrol-3a(1H)-yl) 2-chlorobenzothioate] | 834 | 59.8 | 13.95 | 188 to 190 | – |
| O=C(Cc1ccccc1)SC12CCC=C1C(=O)NC2=O (stereo not drawn) [Compound 27, S-(1,3-Dioxo-2,3,4,5-tetrahydrocyclopenta[c]pyrrol-3a(1H)-yl) 2-phenylethanethioate] | 93.1 | 30.6 | 3.042 | 155 to 158 | – |
| CC(=O)S[C@]12CCC[C@H]1C(=O)NC2=O (relative stereo) [Compound 18, S-((3aR*,6aS*)-1,3-Dioxohexahydrocyclopenta[c]pyrrol-3a(1H)-yl) ethanethioate] | 674 | 59.2 | 11.39 | 120 to 122 | – |
| O=C(S)c1ccc(O)cc1 [Compound 6, 4-hydroxybenzothioic S-acid] | 2910 | 127 | 22.99 | – | – |
| O=C(S[C@@]12CC[C@H](O)[C@@H]1C(=O)NC2=O)c1ccc(O)cc1 [(+)-1, S-((3aS,6S,6aR)-6-hydroxy-1,3-dioxohexahydrocyclopenta[c]pyrrol-3a(1H)-yl) 4-hydroxybenzothioate] | 1020 | 71.8 | 14.14 | – | – |
| O=C1NC(=O)C2=C1CCC2SC(=O)c1ccccc1 (stereo not shown) | – | – | – | 149 to 151 | – |
| O=C(Cc1ccccc1)S[C@]12CC[C@@H](O)[C@H]1C(=O)NC2=O (relative stereo) [Compound 9, S-((3aR*,6R*,6aS*)-6-Hydroxy-1,3-dioxohexahydrocyclopenta[c]pyrrol-3a(1H)-yl) 2-phenylethanethioate] | 834 | 132 | 6.322 | – | – |
| O=C1NC(=O)C2=C1CCC2SC(=O)c1cccs1 (stereo not drawn) [Compound 29, S-(1,3-Dioxo-1,2,3,4,5,6-hexahydrocyclopenta[c]pyrrol-4-yl) thiophene-2-carbothioate] | 26.7 | 65 | 0.4108 | 138 to 139 | – |
| CC(=O)S[C@]12CC[C@@H](O)[C@H]1C(=O)NC2=O (relative stereo) [Compound 7, S-((3aR*,6R*,6aS*)-6-Hydroxy-1,3-dioxohexahydrocyclopenta[c]pyrrol-3a(1H)-yl) ethanethioate] | 558 | 148 | 3.7762 | – | – |
| O=C1NC(=O)C2(SC(=O)c3ccc(F)cc3)CCC=C12 (stereo not shown) | – | – | – | 191 to 192 | – |
| O=C(S[C@@]12CC[C@@H](O)[C@@H]1C(=O)NC2=O)c1ccc(O)cc1 (racemic) [(±)-2, S-((3aS*,6R*,6aR*)-6-hydroxy-1,3-dioxohexahydrocyclopenta[c]pyrrol-3a(1H)-yl) 4-hydroxybenzothioate] | 434 | 225 | 1.925 | – | – |
| CC(=O)OC1CC[C@]2(SC(=O)c3ccc(F)cc3)C(=O)NC(=O)[C@H]12 (relative stereo) [Compound 33, (3aS*,6aR*)-6a-((4-Fluorobenzoyl)thio)-1,3-dioxooctahydrocyclopenta[c]pyrrol-4-yl acetate] | 12100 | 34.3 | 353.8076 | – | – |
| O=C(S[C@]12CCC[C@H]1C(=O)NC2=O)c1ccc(F)cc1 (relative stereo) [Compound 20, S-((3aR*,6aS*)-1,3-Dioxohexahydrocyclopenta[c]pyrrol-3a(1H)-yl) 4-fluorobenzothioate] | 384 | 390 | 0.9841 | 186 to 187 | – |
| CC(=O)OC1CC[C@]2(SC(=O)Cc3ccccc3)C(=O)NC(=O)[C@H]12 (relative stereo) [Compound 32, (3aS*,6aR*)-1,3-Dioxo-6a-((2-phenylacetyl)thio) octahydrocyclopenta[c]pyrrol-4-yl acetate] | 1610 | – | 23.57 | – | 68.2 |
| O=C(S[C@]12CC[C@@H](O)[C@H]1C(=O)NC2=O)c1ccccc1 (relative stereo) [Compound 15, S-((3aR*,6R*,6aS*)-6-Hydroxy-1,3-dioxohexahydrocyclopenta[c]pyrrol-3a(1H)-yl) benzothioate] | 479 | 72.4 | 6.622 | 185 to 186 | – |
| O=C(S[C@]12CC[C@H](O)[C@H]1C(=O)NC2=O)c1ccc(O)cc1 [(−)-2, S-((3aR,6S,6aS)-6-hydroxy-1,3-dioxohexahydrocyclopenta[c]pyrrol-3a(1H)-yl) 4-hydroxybenzothioate] | 1380 | 140 | 9.85 | – | – |
| CC(=O)OC1CCC2=C1C(=O)NC2=O (racemic) [Compound 5, 1,3-dioxo-1,2,3,4,5,6-hexahydrocyclopenta[c]pyrrol-4-yl acetate] | 616 | 42 | 14.67 | – | – |
| O=C(Cc1ccccc1)S[C@@]12CC[C@@H](O)[C@@H]1C(=O)NC2=O (relative stereo) [Compound 10, S-((3aS*,6R*,6aR*)-6-Hydroxy-1,3-dioxohexahydrocyclopenta[c]pyrrol-3a(1H)-yl) 2-phenylethanethioate] | 774 | 143 | 5.418 | – | – |
| CC(=O)SC12CCC=C1C(=O)NC2=O (stereo not drawn) [Compound 26, S-(1,3-Dioxo-2,3,4,5-tetrahydrocyclopenta[c]pyrrol-3a(1H)-yl)ethanethioate] | 184 | 20.5 | 9 | 170 to 172 | – |
| CC(=O)OC1CC[C@]2(SC(=O)c3ccccc3)C(=O)NC(=O)[C@H]12 (relative stereo) [Compound 35, (3aS*,6aR*)-6a-(Benzoylthio)-1,3-dioxooctahydrocyclopenta[c]pyrrol-4-yl acetate] | 1910 | 64.3 | 29.74 | – | – |
| O=C(S[C@@]12CC[C@@H](O)[C@@H]1C(=O)NC2=O)c1ccccc1O (relative stereo) | – | – | – | 213 to 216 | – |
| CC(=O)OC1CC[C@]2(SC(=O)c3ccccc3Cl)C(=O)NC(=O)[C@H]12 (relative stereo) [Compound 34, (3aS*,6aR*)-6a-((2-Chlorobenzoyl)thio)-1,3-dioxooctahydrocyclopenta[c]pyrrol-4-yl acetate] | 9080 | 101 | 89.51 | – | – |
| O=C(SC1CC[C@]2(SC(=O)c3ccc(F)cc3)C(=O)NC(=O)[C@H]12)c1ccc(F)cc1 (relative stereo) [Compound 23, S,S′-((3aR*,6aR*)-1,3-Dioxohexahydrocyclopenta[c]pyrrole-3a,6(1H)-diyl) bis(4-fluorobenzothioate)] | 211 | – | 2.142 | – | 98.3 |
| CC(=O)SC1CC[C@]2(SC(C)=O)C(=O)NC(=O)[C@H]12 (relative stereo) [Compound 28, S,S′-((3aR*,6aR*)-1,3-Dioxohexahydrocyclopenta[c]pyrrole-3a,6(1H)-diyl) diethanethioate] | 10000 | – | 505.4343 | – | 19.8 |
| O=C(Cc1ccccc1)S[C@]12CCC[C@H]1C(=O)NC2=O (relative stereo) [Compound 19, S-((3aR*,6aS*)-1,3-Dioxohexahydrocyclopenta[c]pyrrol-3a(1H)-yl) 2-phenylethanethioate] | 426 | 56.9 | 7.48 | – | – |
| O=C1NC(=O)C2=C1CCC2O (stereo in doubt) [(−)-4, (R)-4-Hydroxy-5,6-dihydrocyclopenta[c]pyrrole-1,3(2H,4H)-dione] | 319 | 121 | 2.631 | – | – |
